These are literature values, as cited in patent US9637731B2, “Heavy metal stabilization and methane inhibition during induced or naturally occurring reducing conditions in contaminated media” (Innovative Environmental Technologies, Inc., priority 2013, dated 2017).

Data set [1] concerns pure methanogenic bacteria.
Data set [2] has as its system F420-dependent NADP oxidoreductase enzyme. The following applies: 3D protein model.

As for `CC[C@H](C)C(=O)O[C@H]1C[C@@H](C)C=C2C=C[C@H](C)[C@H](CC[C@@H]3C[C@@H](O)CC(=O)O3)[C@H]21` [lovastatin, Lovastatin], in data set [1], the “growth and activity of pure methanogenic bacteria” value is “significantly reduced”. The “affinity for the model protein compared to the natural ligand F420” value in data set [2] is on record as “more affinity”. Also, the “populations of the non-methanogens” value in the data set on non-methanogens was “not affected”. The methane formation entry with Methanobrevibacter is “significantly inhibited”. Further, in the data set on Methanobrevibacter (per ml of culture medium), the “concentration that completely inhibited growth” value is 10 nmol/mL. Moreover, the IC50 in the data set with Methanobrevibacter (per ml of culture medium, read-out: concentration resulting in 50% inhibition of growth) was 4 µM. The “effect on cellulolytic bacteria” value in the data set with cellulolytic bacteria is reported as “without any negative effect”.

With `CC[C@H](C)C(=O)O[C@H]1CCC=C2C=C[C@H](C)[C@H](CC[C@@H]3C[C@@H](O)CC(=O)O3)[C@H]21` [compactin], in data set [2], the “affinity for the model protein compared to the natural ligand F420” value was “more affinity”.
